Data from publication PMC9250511, “Metabolomics-guided discovery of cytochrome P450s involved in pseudotropine-dependent biosynthesis of modified tropane alkaloids” (Nature Communications, 2022).

Assays:
[1] = biological target: T1, AbP450-5021 (Atropa belladonna, UniProt A0A3G4RHX1); test: transient expression in N. benthamiana leaves, UHPLC/HRMS of products; assay type: cell-based; settings: 1 mM substrate hydrochloride infiltrated in leaf, 2 days
T1 construct: full-length ORF in pEAQ-HT-DEST1, transiently produced in Nicotiana benthamiana leaves

[2] = biological target: T2, AbP450-116623 (Atropa belladonna, UniProt A0A3G4RHW9); test: as above; assay type: cell-based; settings: 1 mM substrate hydrochloride infiltrated in leaf, 2 days; ring-hydroxylation at carbon adjacent to ring nitrogen (isomer 1)
T2 construct: full-length ORF in pEAQ-HT-DEST1, transiently produced in Nicotiana benthamiana leaves
T2 sequence (A0A3G4RHW9 entry or part of it): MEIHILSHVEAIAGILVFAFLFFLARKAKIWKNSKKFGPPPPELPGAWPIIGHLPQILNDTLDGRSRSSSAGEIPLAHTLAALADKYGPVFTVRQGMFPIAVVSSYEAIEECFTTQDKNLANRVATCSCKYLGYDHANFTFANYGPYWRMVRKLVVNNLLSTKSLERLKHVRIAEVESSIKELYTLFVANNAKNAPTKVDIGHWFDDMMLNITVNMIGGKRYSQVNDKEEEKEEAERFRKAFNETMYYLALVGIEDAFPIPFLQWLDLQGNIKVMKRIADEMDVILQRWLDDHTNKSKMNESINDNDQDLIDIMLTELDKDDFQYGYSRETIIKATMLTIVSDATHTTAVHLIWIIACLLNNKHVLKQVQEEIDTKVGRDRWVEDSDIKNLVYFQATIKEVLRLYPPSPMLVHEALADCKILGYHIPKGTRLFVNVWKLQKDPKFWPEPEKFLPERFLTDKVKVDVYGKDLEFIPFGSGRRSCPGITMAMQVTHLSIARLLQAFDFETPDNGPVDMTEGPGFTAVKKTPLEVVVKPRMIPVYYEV

T1 sequence (A0A3G4RHX1 entry or part of it): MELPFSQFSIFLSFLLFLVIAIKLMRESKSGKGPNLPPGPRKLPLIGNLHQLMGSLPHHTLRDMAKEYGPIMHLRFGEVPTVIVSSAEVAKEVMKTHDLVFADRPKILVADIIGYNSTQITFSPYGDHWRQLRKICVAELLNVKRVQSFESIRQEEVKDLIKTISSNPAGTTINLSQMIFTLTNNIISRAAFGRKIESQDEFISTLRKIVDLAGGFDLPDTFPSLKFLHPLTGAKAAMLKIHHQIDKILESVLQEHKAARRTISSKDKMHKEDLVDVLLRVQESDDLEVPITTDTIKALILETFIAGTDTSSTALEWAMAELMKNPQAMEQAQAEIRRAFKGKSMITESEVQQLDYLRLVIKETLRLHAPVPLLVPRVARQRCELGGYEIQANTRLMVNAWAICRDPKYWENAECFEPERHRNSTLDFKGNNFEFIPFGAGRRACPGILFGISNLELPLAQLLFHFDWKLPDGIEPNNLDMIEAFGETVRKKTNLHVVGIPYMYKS

Compound | transient expression in N. benthamiana leaves, UHPLC/HRMS of products ([1]; N-demethylation to tigloyl norpseudotropine, then ring-hydroxylation (isomer 2)) | transient expression in N. benthamiana leaves, UHPLC/HRMS of products ([1]; ring-hydroxylation next to the esterified carbon (isomer 2)) | transient expression in N. benthamiana leaves, UHPLC/HRMS of products [2]
C/C=C(\C)C(=O)OC1CC2CCC(C1)N2C (stereo not drawn) [compound 6, tigloyl pseudotropine] | producing AbP450-5021 alone using either tigloyl pseudotropine or tigloyl norpseudotropine as substrate |  | 
C/C=C(\C)C(=O)O[C@@H]1C[C@H]2CC[C@@H](C1)N2 [compound 21, tigloyl norpseudotropine] |  | producing AbP450-5021 alone using either tigloyl pseudotropine or tigloyl norpseudotropine as substrate | Assays with AbP450-116623 alone and N-demethylated tigloyl norpseudotropine as substrate yielded tigloyl hydroxynorpseudotropine
